Here are results for two substances from patent US20190276495A1 (priority 2016, published 2019).

One assay concerns BALB/cAJc mice. Conditions: mouse, in vivo, iv.
A further assay relates to Balb/c mice. Conditions: mouse, in vivo, ip.

In the case of Core-[PEG-FPRCRYVHK]4 [Ebola 2 MAP4], in the assay on BALB/cAJc mice, the “IgG (anti-MAP antibody in sera)” value is “no increase” and the “IgM (anti-MAP antibody in sera)” value is recorded as “no increase”.
Core-[PEG-IKKADGSECLP]4 [Ebola 1 MAP4]: in the assay with BALB/cAJc mice, the “IgG (anti-MAP antibody in sera)” value was “increase in IgG was seen only in the 100-μg administration group”. In the assay with Balb/c mice, the “IgG (anti-MAP antibody in sera)” value is recorded as “no increase”; the “IgM antibody titer against Ebola 1” value is “one mouse showed an evident increase, and two mice showed mild increases”.
